# Measured values published in patent publication US10765114B2, “4-amino-6-(pyridyl and 2-substitutedphenyl)-picolinates and 6-amino-2-(pyridyl and 2-substitutedphenyl)-pyrimidine-4-carboxylates and their use as herbicides” (Dow AgroSciences LLC, priority 2013, dated 2020).
# Where two headings read alike, the source gives them in different places.
# Columns and labels:
# [1] = tested on: Key Grass and Sedge Weeds as well as Grass Crops; experiment: Post-Emergent Test II (Table 6); type: in vivo; conditions: post-emergence, 336 h, 14 days after application; for pest or weed control at 70 g/ha: 70 g ai/ha; for pest or weed control at 140 g/ha: 140 g ai/ha
# Method in brief: (§1)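 Growth stage at treatment: first or second true leaf. Application: compound in acetone/DMSO diluted into an adjuvant-containing aqueous mix, sprayed at 187 L/ha at several rates. Assessment: visual 0-100% injury at 14 days against untreated plants.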
# [2] = tested on: Key Broadleaf Weed and Crop Species; experiment: Post-Emergent Test II (Table 5); type: in vivo; conditions: post-emergence, 336 h; for pest or weed control at 70 g/ha: application rate 70 (kg ai/ha; footnote: g ai/ha); for pest or weed control at 140 g/ha: application rate 140 (kg ai/ha; footnote: g ai/ha)
# Method in brief: as §1
# [3] = CYPSS, read-out: Visual Growth Reduction (%) 14 Days After Application CYPSS
# [4] = DIGSA: crabgrass (Digitaria sanguinalis), read-out: Visual Growth Reduction (%) 14 Days After Application DIGSA
# [5] = ORYSS (crop), read-out: Visual Growth Reduction (%) 14 Days After Application ORYSS
# [6] = SETFA: giant foxtail (Setaria faberi), read-out: Visual Growth Reduction (%) 14 Days After Application SETFA
# [7] = SORVU: grain sorghum (Sorghum vulgare), read-out: Visual Growth Reduction (%) 14 Days After Application SORVU
# [8] = TRZSS (crop), read-out: Visual Growth Reduction (%) 14 Days After Application TRZSS
# [9] = ZEAMX: maize, corn (Zea mays), read-out: Visual Growth Reduction (%) 14 Days After Application ZEAMX
# [10] = Abutilon theophrasti, ABUTH: velvetleaf (Abutilon theophrasti), read-out: Visual Growth Reduction (%) 14 Days After Application ABUTH
# [11] = Amaranthus retroflexus, AMARE: redroot pigweed (Amaranthus retroflexus), read-out: Visual Growth Reduction (%) 14 Days After Application AMARE
# [12] = Brassica napus, BRSSS: oilseed rape, canola (Brassica napus), read-out: Visual Growth Reduction (%) 14 Days After Application BRSSS
# [13] = Chenopodium album, CHEAL: lambsquarters (Chenopodium album), read-out: Visual Growth Reduction (%) 14 Days After Application CHEAL
# [14] = Euphorbia heterophylla, EPHHL: wild poinsettia (Euphorbia heterophylla), read-out: Visual Growth Reduction (%) 14 Days After Application EPHHL
# [15] = Helianthus annuus, HELAN: sunflower (Helianthus annuus), read-out: Visual Growth Reduction (%) 14 Days After Application HELAN
# [16] = Viola tricolor, VIOTR: wild pansy (Viola tricolor), read-out: Visual Growth Reduction (%) 14 Days After Application VIOTR
Structure (SMILES),"pest or weed control at 70 g/ha [1, 3] [%]","pest or weed control at 140 g/ha [1, 3] [%]","pest or weed control at 70 g/ha [1, 4] [%]","pest or weed control at 140 g/ha [1, 4] [%]","pest or weed control at 70 g/ha [1, 5] [%]","pest or weed control at 140 g/ha [1, 5] [%]","pest or weed control at 70 g/ha [1, 6] [%]","pest or weed control at 140 g/ha [1, 6] [%]","pest or weed control at 70 g/ha [1, 7] [%]","pest or weed control at 140 g/ha [1, 7] [%]","pest or weed control at 70 g/ha [1, 8] [%]","pest or weed control at 140 g/ha [1, 8] [%]","pest or weed control at 70 g/ha [1, 9] [%]","pest or weed control at 140 g/ha [1, 9] [%]","pest or weed control at 70 g/ha [2, 10] [%]","pest or weed control at 140 g/ha [2, 10] [%]","pest or weed control at 70 g/ha [2, 11] [%]","pest or weed control at 140 g/ha [2, 11] [%]","pest or weed control at 70 g/ha [2, 12] [%]","pest or weed control at 140 g/ha [2, 12] [%]",other results
COC(=O)c1nc(-c2ccc(Cl)c(F)c2Cl)cc(N)c1Cl [Compound 72],95 to 100,95 to 100,75 to 84,75 to 84,0 to 29,0 to 29,75 to 84,75 to 84,60 to 74,95 to 100,45 to 59,45 to 59,60 to 74,75 to 84,95 to 100,95 to 100,95 to 100,95 to 100,85 to 94,95 to 100,"pest or weed control at 70 g/ha [2, 13]: 95 to 100%; pest or weed control at 140 g/ha [2, 13]: 95 to 100%; pest or weed control at 70 g/ha [2, 14]: 85 to 94%; pest or weed control at 140 g/ha [2, 14]: 85 to 94%; pest or weed control at 70 g/ha [2, 15]: 75 to 84%; pest or weed control at 140 g/ha [2, 15]: 85 to 94%; pest or weed control at 70 g/ha [2, 16]: 95 to 100%; pest or weed control at 140 g/ha [2, 16]: 95 to 100%; melting point: 183 to 189 °C"
COC(=O)c1nc(-c2ccc(Cl)c(F)c2C)c(Cl)c(N)c1Cl [Compound 3],0 to 29,0 to 29,0 to 29,0 to 29,0 to 29,0 to 29,0 to 29,0 to 29,0 to 29,0 to 29,0 to 29,0 to 29,0 to 29,0 to 29,60 to 74,60 to 74,95 to 100,95 to 100,0 to 29,0 to 29,"pest or weed control at 70 g/ha [2, 13]: 60 to 74%; pest or weed control at 140 g/ha [2, 13]: 75 to 84%; pest or weed control at 70 g/ha [2, 14]: 0 to 29%; pest or weed control at 140 g/ha [2, 14]: 0 to 29%; pest or weed control at 70 g/ha [2, 15]: 75 to 84%; pest or weed control at 140 g/ha [2, 15]: 75 to 84%; pest or weed control at 70 g/ha [2, 16]: 0 to 29%; pest or weed control at 140 g/ha [2, 16]: 0 to 29%; melting point: 122 to 136 °C"
